Data as given in patent US7718612B2, “Pyridazinonyl macrocyclic hepatitis C serine protease inhibitors” (Enanta Pharmaceuticals, Inc., priority 2006, dated 2010).
Read-outs that look alike come from different tables or passages of the source.

How the values were obtained:
[1] = system: HCV replicon RNA in Huh 11-7 cell line; assay: Cell-Based Replicon Assay; conditions: Hepatitis C virus, 96 h, read-out: EC50 in the Cell-Based Replicon Assay
Protocol: Quantification of HCV replicon RNA (HCV Cell Based Assay) is accomplished using the Huh 11-7 cell line (Lohmann, et al Science 285:110-113, 1999). Cells are seeded at 4×10^3 cells/well in 96 well plates and fed media containing DMEM (high glucose), 10% fetal calf serum, penicillin-streptomycin and non-essential amino acids. Cells are incubated in a 7.5% CO2 incubator at 37° C. At the end of the incubation period, total RNA is extracted and purified from cells using Ambion RNAqueous 96 Kit (Catalog No. AM1812). To amplify the HCV RNA so that sufficient material can be detected by an HCV specific probe (below), primers specific for HCV (below) mediate both the reverse transcription of the HCV RNA and the amplification of the cDNA by polymerase chain reaction (PCR) using the TaqMan One-Step RT-PCR Master Mix Kit (Applied Biosystems catalog no. 4309169). The nucleotide sequences of the RT-PCR primers, which are located in the NS5B region of the HCV genome, are the following:
Detection of the RT-PCR product is accomplished using the Applied Biosystems (ABI) Prism 7500 Sequence Detection System (SDS) that detects the fluorescence that is emitted when the probe, which is labeled with a fluorescence reporter dye and a quencher dye, is degraded during the PCR reaction. The increase in the amount of fluorescence is measured during each cycle of PCR and reflects the increasing amount of RT-PCR product. Specifically, quantification is based on the threshold cycle, where the amplification plot crosses a defined fluorescence threshold. […] The data is analyzed using the ABI SDS program version 1.7. […]
The RT-PCR product was detected using the following labeled probe: […]
To normalize the data to an internal control molecule within the cellular RNA, RT-PCR is performed on the cellular messenger RNA glyceraldehyde-3-phosphate dehydrogenase (GAPDH). […] GAPDH RT-PCR is performed on the same RNA sample from which the HCV copy number is determined. […] The ratio of HCV/GAPDH RNA is used to calculate the activity of compounds evaluated for inhibition of HCV RNA replication. […]

[2] = molecular target: T1, full-length NS3 HCV protease 1b tethered with NS4A cofactor (Hepatitis C virus genotype 1b, UniProt Q9WMX2); assay: NS3/NS4a Protease Enzyme Assay; format: biochemical
T1 construct: full-length NS3 HCV protease 1b tethered with NS4A cofactor; NS4A cofactor (tethered, fused to NS3)
Protocol: HCV protease activity and inhibition is assayed using an internally quenched fluorogenic substrate. A DABCYL and an EDANS group are attached to opposite ends of a short peptide. Quenching of the EDANS fluorescence by the DABCYL group is relieved upon proteolytic cleavage. Fluorescence is measured with a Molecular Devices Fluoromax (or equivalent) using an excitation wavelength of 355 nm and an emission wavelength of 485 nm.
The assay is run in Corning white half-area 96-well plates (VWR 29444-312 [Corning 3693]) with full-length NS3 HCV protease 1b tethered with NS4A cofactor (final enzyme concentration 1 to 15 nM). The assay buffer is complemented with 10 μM NS4A cofactor Pep 4A (Anaspec 25336 or in-house, MW 1424.8). RET S1 (Ac-Asp-Glu-Asp(EDANS)-Glu-Glu-Abu-[COO]Ala-Ser-Lys-(DABCYL)-NH2, AnaSpec 22991, MW 1548.6) is used as the fluorogenic peptide substrate. The assay buffer contains 50 mM Hepes at pH 7.5, 30 mM NaCl and 10 mM BME. The enzyme reaction is followed over a 30 minutes time course at room temperature in the absence and presence of inhibitors.
The peptide inhibitors HCV Inh 1 (Anaspec 25345, MW 796.8) Ac-Asp-Glu-Met-Glu-Glu-Cys-OH, [−20° C.] and HCV Inh 2 (Anaspec 25346, MW 913.1) Ac-Asp-Glu-Dif-Cha-Cys-OH, are used as reference compounds.
IC50 values are calculated using XLFit in ActivityBase (IDBS) using equation 205: y=A+((B−A)/(1+((C/x)^D))).

[3] = Huh 11-7 cells, 4 days, HCV/GAPDH RNA ratio

T1 sequence (Q9WMX2 1013-1657, looked up, natural form): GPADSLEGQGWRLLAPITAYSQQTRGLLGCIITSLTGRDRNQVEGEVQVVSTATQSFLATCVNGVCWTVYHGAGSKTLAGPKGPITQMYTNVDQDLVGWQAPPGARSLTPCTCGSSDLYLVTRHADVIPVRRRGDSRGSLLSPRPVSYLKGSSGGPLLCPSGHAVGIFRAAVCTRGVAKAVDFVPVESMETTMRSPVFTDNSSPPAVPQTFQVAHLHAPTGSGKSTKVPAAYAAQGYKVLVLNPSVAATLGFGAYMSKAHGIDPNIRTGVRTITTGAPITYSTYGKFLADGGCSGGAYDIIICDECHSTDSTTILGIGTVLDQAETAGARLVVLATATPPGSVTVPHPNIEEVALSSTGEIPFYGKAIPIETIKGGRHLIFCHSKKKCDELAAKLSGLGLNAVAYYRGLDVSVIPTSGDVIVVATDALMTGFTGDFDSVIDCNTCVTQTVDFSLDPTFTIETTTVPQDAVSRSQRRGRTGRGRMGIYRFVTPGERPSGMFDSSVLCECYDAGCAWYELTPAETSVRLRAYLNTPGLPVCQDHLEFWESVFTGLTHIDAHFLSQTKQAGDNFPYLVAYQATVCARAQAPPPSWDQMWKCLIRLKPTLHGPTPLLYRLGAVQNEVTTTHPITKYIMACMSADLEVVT

SMILES	EC50 [1]	IC50 [2]	EC50 [1, 3]
COc1c(-c2cccc3ccccc23)cnn([C@@H]2C[C@H]3C(=O)N[C@]4(C(=O)NS(=O)(=O)C5CC5)C[C@H]4/C=C\CCCCC[C@H](NC(=O)OC(C)(C)C)C(=O)N3C2)c1=O [Example 30]	< 0.2 nM	0.1 nM	–
COc1c(-c2cccc3ccccc23)cnn(C2CC3C(=O)NC4(C(=O)NS(=O)(=O)C5CC5)CC4C=CCCCCCC(NC(=O)OC4CCCC4)C(=O)N3C2)c1=O (stereo not drawn) [Example 32]	–	0.4 nM	< 0.2 nM
COc1c(-c2cccc3ccccc23)cnn(C2CC3C(=O)NC4(C(=O)NS(=O)(=O)C5CC5)CC4C=CCCCCCC(NC(=O)c4cccs4)C(=O)N3C2)c1=O (stereo not drawn) [Example 34]	–	0.2 nM	< 0.2 nM
